Test results as given in article PMC5843753, “Comparative analysis of plant isochorismate synthases reveals structural mechanisms underlying their distinct biochemical properties” (Bioscience Reports, 2018).

Assays:
[1] = target: NbICS (Nicotiana benthamiana, UniProt A0A286T8R2); experiment: in planta SA accumulation with co-expressed IPL; format: cell-based; settings: endogenous chorismate, N. benthamiana leaves, ICS to IPL 1:19
[2] = target: T1, AtICS1 (Arabidopsis thaliana, UniProt Q9S7H8, T531A); experiment: isochorismate converted into SA, SA measured; format: biochemical; settings: 1 mM barium chorismate, 10 mM MgCl2, pH 7.5, 30 C, 1 h; crude E. coli fraction
T1 construct: gene ICS1; putative chloroplast transit peptide removed, N-terminal His6 (pET28a), E. coli SHuffle T7, crude desalted protein fraction; also C-terminal 3xFLAG in N. benthamiana leaves
T1 sequence (Q9S7H8 46-569 T531A): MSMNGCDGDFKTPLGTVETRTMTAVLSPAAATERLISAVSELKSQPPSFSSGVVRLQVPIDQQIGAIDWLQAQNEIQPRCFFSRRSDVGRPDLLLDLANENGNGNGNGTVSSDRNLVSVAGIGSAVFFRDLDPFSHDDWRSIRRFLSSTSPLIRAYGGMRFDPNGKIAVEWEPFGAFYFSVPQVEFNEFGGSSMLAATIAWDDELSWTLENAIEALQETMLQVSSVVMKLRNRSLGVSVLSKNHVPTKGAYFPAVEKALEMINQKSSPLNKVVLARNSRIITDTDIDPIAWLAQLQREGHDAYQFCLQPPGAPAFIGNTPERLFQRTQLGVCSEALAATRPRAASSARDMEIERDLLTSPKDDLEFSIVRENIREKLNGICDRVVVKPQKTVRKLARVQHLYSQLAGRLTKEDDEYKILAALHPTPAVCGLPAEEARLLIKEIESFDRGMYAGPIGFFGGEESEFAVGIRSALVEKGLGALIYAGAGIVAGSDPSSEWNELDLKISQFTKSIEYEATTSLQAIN

[3] = target: T2, OsICS (Oryza sativa, UniProt A0A286T796); experiment: in planta SA accumulation with co-expressed IPL; format: cell-based; settings: endogenous chorismate, N. benthamiana leaves, transit peptide replaced
T2 construct: own transit peptide replaced by that of AtICS1 or of tobacco Rubisco small subunit; N. benthamiana leaves, P. fluorescens IPL PmsB as coupling enzyme
T2 sequence (A0A286T796 46-581): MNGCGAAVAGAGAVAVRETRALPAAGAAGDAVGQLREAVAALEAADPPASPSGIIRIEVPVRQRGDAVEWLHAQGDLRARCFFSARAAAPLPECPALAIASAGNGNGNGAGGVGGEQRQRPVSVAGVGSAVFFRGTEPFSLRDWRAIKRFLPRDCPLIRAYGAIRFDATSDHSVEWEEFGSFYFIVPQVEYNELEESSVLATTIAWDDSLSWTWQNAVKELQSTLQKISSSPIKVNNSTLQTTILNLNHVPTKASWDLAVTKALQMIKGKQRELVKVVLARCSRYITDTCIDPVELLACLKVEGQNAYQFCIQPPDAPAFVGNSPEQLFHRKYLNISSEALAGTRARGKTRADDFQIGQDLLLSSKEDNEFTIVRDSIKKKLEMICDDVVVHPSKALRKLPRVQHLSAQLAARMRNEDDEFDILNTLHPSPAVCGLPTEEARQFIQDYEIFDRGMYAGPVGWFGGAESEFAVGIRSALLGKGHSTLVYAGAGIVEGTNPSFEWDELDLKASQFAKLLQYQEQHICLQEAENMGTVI

[4] = target: T3, EntC (Escherichia coli, UniProt P0AEJ2); experiment: isochorismate converted into SA, SA measured; format: biochemical; settings: 1 mM barium chorismate, 10 mM MgCl2, pH 7.5, 30 C, 1 h; crude E. coli fraction; linearity not confirmed for EntC in E. coli
T3 construct: N-terminal His6 (pET28a), E. coli SHuffle T7, crude desalted protein fraction; also with tobacco Rubisco small subunit transit peptide and 3xFLAG in N. benthamiana
T3 sequence (P0AEJ2 1-391): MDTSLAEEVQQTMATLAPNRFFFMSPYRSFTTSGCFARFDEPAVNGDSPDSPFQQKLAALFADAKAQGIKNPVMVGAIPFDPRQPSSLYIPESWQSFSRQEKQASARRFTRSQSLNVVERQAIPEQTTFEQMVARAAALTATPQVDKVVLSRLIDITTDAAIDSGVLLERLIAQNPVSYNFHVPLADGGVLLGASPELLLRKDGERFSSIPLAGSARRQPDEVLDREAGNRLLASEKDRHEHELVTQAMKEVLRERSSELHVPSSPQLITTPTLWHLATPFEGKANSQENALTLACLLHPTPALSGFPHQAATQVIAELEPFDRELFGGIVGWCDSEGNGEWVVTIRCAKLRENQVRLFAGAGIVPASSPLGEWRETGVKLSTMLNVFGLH

[5] = target: T4, NtICS (Nicotiana tabacum, UniProt A0A286T848); experiment: in planta SA accumulation with co-expressed IPL; format: cell-based; settings: endogenous chorismate, N. benthamiana leaves, ICS to IPL 1:19
T4 sequence (A0A286T848 48-584): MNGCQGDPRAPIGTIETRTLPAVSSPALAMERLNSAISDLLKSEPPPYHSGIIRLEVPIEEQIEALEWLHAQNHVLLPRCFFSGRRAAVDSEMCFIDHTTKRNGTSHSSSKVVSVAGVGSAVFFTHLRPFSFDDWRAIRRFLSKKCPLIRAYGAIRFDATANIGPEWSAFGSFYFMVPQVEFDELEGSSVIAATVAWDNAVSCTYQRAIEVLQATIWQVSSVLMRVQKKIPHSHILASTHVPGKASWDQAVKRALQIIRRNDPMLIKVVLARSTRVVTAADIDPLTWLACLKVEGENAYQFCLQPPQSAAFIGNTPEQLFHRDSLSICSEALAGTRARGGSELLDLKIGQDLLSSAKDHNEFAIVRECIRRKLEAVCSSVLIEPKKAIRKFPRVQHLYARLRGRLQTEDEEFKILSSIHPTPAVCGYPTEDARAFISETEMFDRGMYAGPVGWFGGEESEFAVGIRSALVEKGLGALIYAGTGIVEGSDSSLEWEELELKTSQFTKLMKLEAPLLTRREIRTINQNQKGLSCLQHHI

[6] = target: T5, AtICS1 (Arabidopsis thaliana, UniProt Q9S7H8); experiment: isochorismate converted into SA, SA measured; format: biochemical; settings: 1 mM barium chorismate, 10 mM MgCl2, pH 7.5, 30 C, 1 h; crude E. coli fraction
T5 construct: gene ICS1; putative chloroplast transit peptide removed, N-terminal His6 (pET28a), E. coli SHuffle T7, crude desalted protein fraction; also C-terminal 3xFLAG in N. benthamiana leaves
T5 sequence (Q9S7H8 46-569): as the sequence (Q9S7H8 46-569 T531A) above, with A486T counted along it

Chain of NbICS (A0A286T8R2 53-590): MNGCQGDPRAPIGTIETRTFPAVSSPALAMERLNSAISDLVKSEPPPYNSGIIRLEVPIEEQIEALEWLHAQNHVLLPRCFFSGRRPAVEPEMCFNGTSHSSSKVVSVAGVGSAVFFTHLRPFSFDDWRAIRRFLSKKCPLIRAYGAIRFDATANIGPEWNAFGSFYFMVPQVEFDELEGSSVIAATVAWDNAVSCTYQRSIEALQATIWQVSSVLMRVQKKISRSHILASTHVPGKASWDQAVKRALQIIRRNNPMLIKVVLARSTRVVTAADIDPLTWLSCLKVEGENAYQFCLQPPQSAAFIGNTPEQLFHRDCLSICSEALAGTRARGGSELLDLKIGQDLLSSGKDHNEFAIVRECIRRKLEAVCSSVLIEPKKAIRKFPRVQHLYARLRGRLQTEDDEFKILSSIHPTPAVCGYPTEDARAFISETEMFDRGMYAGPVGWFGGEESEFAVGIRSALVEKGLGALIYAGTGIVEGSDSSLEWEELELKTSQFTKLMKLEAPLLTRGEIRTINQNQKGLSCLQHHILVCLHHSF

C=C(O[C@@H]1C=C(C(=O)O)C=C[C@H]1O)C(=O)O [chorismate]
SA level [1]: expression of NtICS or NbICS with IPL resulted in significant increases in the levels of SA
ICS activity [2]: The T531A mutant showed the lowest activity compared with the S537T and I550A mutants
SA level [3]: OsICS with TP^AtICS1 or TP^SS showed low but significant levels of ICS activity in planta
ICS activity [4]: AtICS1 and EntC showed activity that was much higher than the empty vector control
SA level [5]: expression of NtICS or NbICS with IPL resulted in significant increases in the levels of SA
ICS activity [6]: AtICS1 and EntC showed activity that was much higher than the empty vector control
